In article PMC5780498, “Discovery of novel bacterial topoisomerase I inhibitors by use of in silico docking and in vitro assays” (Scientific Reports, 2018):
≈ marks a conversion by molar mass, not a printed value. Entries after “also recorded” stand apart in the source; their conditions may differ. Like-named read-outs stand apart in the source and are kept apart here.

Legend:
[1] = target: T1, M. tuberculosis topoisomerase I (MtbTopI) (Mycobacterium tuberculosis, UniProt P9WG49); assay: MtbTopI relaxation inhibition assay; format: biochemical; settings: 12.5 nM enzyme, supercoiled pBAD/Thio plasmid, 37 °C 30 min, agarose gel
T1 construct: made in house

[2] = target: T2, human topoisomerase I (hTOPI) (Homo sapiens, UniProt P11387); assay: Human topoisomerase I relaxation inhibition assay; format: biochemical; settings: for IC50: 0.5 U enzyme, supercoiled plasmid, 37 °C 30 min; for Selectivity Score: hTOPI IC50/MtbTopI IC50
T2 construct: purchased TopoGen
T2 sequence (P11387 1-765): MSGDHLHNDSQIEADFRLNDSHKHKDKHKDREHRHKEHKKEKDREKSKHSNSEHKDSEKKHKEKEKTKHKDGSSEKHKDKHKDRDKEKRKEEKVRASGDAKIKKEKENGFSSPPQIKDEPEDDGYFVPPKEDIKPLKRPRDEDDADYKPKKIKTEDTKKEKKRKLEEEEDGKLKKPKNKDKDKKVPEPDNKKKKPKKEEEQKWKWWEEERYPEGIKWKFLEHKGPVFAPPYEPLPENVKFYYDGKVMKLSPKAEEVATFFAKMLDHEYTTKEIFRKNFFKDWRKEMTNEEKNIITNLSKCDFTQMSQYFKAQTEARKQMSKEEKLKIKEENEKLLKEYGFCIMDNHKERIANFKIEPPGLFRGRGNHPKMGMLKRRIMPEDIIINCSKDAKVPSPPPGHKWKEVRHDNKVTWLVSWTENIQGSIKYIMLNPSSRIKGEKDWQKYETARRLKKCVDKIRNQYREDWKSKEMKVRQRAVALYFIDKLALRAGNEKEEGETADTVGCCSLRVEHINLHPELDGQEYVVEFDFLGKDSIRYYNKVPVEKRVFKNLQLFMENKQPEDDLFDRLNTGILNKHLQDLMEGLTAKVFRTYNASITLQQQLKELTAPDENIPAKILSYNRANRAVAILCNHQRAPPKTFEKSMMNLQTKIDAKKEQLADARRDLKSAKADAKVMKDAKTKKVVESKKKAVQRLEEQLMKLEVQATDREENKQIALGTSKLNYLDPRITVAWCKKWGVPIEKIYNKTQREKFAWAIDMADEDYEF
Procedure: Human topoisomerase I assays were carried out in a buffer containing 10 mM Tris-HCl, pH 8.0, 150 mM NaCl, 0.1% BSA, 0.1 mM spermidine, and 5% glycerol. The enzyme (from TopoGen) was diluted in the above buffer and aliquoted into 10 µL samples such that 0.5U was present in each. 0.5 µL of compound at various concentrations was added before the addition of 150 ng of purified pBAD/Thio purified plasmid DNA for a final volume of 20 µL. The samples were incubated for 30 minutes at 37 °C before stopping by the addition of 4 µL of buffer containing 5% SDS, 0.25% bromophenol blue, and 25% glycerol. The samples were analyzed by gel electrophoresis as previously described[23],[38],[39]. The experiments were replicated twice.

[3] = system: M. smegmatis transformed with cloning vector (MnoI strain); assay: microbe, parasite or virus in culture; format: cell-based, Mycobacterium smegmatis; settings: Mycolicibacterium smegmatis
[4] = target: T3, E. coli DNA gyrase (Escherichia coli, UniProt P0AES4+P0AES6); assay: DNA gyrase supercoiling inhibition assay; format: biochemical; settings: for IC50: 2 U enzyme, relaxed plasmid, 37 °C 30 min
T3 construct: purchased New England BioLabs
Procedure: E. coli DNA gyrase was obtained from New England BioLabs. Two units of the enzyme were added to a reaction buffer provided by the manufacturer (35 mM Tris-HCl, pH 8.0, 4 mM MgCl2, 24 mM KCl, 2 mM DTT, 1.75 mM ATP, 5 mM spermidine, 0.1 mg/mL BSA, and 6.5% glycerol). 0.5 µL of the compounds dissolved in DMSO or the solvent alone were added to the enzyme mixture. 300 ng of relaxed covalently closed plasmid DNA was then added for a final volume of 20 µL. The reactions were incubated for 30 minutes at 37 °C before termination by the addition of 4 µL of the SDS stop buffer. The samples were then loaded into a 1% agarose gel and run at 25 V overnight. The experiments were replicated twice.

[5] = target: E. coli topoisomerase I (Escherichia coli, UniProt P06612); assay: E. coli topoisomerase I relaxation inhibition assay; format: biochemical; settings: for Inhibition of E. coli topoisomerase I relaxation activity (in words): Supplementary Fig. S2
[6] = target: T4, human topoisomerase I (Homo sapiens, UniProt P11387); assay: Gel electrophoresis with ethidium bromide of human topoisomerase I reaction products (nicked DNA); format: biochemical; settings: gel electrophoresis in the presence of ethidium bromide
T4 construct: purchased TopoGen
T4 sequence (P11387 1-765): T2 sequence (P11387 1-765)

[7] = 48 h, read-out: MnoI Growth Inhibition (MIC)
[8] = read-out: MnoI Growth Inhibition with TZ (MIC)

T3 sequence (P0AES4 whole entry, one chain of several): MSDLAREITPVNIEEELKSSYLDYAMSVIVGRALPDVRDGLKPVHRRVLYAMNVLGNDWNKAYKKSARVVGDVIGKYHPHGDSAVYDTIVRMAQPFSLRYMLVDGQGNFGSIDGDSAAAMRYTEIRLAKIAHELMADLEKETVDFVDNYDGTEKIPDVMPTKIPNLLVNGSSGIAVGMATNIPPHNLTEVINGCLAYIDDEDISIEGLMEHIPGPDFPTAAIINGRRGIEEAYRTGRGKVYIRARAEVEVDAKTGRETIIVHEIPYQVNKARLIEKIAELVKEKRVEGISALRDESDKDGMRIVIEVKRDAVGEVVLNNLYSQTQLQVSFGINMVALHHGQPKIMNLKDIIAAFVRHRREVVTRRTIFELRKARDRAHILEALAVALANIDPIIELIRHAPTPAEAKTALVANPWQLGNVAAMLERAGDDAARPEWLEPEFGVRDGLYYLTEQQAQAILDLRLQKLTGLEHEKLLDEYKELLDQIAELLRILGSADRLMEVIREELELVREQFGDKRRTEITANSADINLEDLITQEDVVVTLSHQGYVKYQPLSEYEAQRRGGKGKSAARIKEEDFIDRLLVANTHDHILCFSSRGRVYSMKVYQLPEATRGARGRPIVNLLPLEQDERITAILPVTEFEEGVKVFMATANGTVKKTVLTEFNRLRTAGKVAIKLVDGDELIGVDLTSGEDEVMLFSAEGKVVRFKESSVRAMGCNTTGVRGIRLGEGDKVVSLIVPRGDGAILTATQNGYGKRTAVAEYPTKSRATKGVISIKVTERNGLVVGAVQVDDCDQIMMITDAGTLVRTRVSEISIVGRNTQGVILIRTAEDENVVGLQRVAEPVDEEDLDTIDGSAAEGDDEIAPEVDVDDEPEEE
Sequence of E. coli topoisomerase I (P06612 whole entry): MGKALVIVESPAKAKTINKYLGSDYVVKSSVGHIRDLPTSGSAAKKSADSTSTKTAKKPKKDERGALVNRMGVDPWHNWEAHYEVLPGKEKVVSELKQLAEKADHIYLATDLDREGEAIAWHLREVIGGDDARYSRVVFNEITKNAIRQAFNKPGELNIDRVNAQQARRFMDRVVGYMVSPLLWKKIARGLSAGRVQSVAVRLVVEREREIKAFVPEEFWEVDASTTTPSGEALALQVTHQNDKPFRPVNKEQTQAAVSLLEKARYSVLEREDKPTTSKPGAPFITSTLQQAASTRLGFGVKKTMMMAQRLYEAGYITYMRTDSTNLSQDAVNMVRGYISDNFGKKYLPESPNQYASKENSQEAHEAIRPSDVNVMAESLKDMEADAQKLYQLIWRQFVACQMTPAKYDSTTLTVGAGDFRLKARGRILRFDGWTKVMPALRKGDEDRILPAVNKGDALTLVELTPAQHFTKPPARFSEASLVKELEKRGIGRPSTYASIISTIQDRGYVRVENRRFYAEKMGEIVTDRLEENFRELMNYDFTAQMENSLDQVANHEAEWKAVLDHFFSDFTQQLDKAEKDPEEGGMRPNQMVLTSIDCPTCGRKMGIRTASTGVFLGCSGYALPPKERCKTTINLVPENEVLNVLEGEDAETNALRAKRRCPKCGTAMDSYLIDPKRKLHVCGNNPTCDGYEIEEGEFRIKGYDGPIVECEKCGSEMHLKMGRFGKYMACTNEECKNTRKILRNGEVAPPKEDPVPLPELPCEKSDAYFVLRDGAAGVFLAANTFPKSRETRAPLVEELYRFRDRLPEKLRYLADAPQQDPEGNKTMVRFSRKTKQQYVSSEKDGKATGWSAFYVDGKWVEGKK
T1 sequence (P9WG49 whole entry): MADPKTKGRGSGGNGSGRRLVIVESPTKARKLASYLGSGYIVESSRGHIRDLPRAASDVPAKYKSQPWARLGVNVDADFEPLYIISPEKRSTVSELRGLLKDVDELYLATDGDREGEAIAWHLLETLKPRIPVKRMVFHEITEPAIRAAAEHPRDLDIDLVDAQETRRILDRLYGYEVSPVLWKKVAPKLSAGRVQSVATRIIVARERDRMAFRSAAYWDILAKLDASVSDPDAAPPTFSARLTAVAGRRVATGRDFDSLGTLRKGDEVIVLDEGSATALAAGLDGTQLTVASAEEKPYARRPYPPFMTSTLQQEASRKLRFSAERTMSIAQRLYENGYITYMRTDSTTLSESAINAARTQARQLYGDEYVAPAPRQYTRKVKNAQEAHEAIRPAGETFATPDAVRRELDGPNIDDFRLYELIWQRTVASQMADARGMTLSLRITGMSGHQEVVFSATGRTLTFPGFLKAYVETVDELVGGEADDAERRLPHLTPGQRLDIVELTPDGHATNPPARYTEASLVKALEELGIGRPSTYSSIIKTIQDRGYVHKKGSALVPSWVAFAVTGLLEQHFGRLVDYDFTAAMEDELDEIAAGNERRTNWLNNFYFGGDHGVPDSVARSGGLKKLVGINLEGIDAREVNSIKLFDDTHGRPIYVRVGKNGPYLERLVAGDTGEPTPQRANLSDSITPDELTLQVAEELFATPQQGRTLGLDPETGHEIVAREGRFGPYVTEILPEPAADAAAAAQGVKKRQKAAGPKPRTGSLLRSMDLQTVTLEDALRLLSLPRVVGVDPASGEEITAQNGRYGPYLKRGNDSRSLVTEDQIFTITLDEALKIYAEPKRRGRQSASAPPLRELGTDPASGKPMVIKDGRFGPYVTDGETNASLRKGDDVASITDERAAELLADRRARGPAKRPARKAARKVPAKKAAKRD

SMILES | IC50 [1] [µM] | IC50 [2] [µM] | Selectivity Score [2] | MIC [3, 7] [µM] | MIC [3, 8] [µM] | Inhibition of E. coli DNA gyrase supercoiling activity (in words) ([4]; up to 500 µM) | Inhibition of E. coli topoisomerase I relaxation activity (in words) [5] | IC50 ([5]; assay conditions as for MtbTopI) [µM] | IC50 [4] [µM] | Formation of nicked DNA by human topoisomerase I [6]
Cc1c(C(=O)N2CCC(c3nnc(-c4nccc5ccccc45)o3)CC2)oc2ccccc12 [Compound 2] | 62.5 | > 250 | >4 | 188 (≈ 82.2 µg/mL) | 31.3 (≈ 13.7 µg/mL) |  |  |  |  | 
COc1ccc2c(c1)NC1(CCN(C(=O)Cc3c[nH]c4ccccc34)CC1)NS2(=O)=O [Compound 3] | 62.5 | > 250 | >4 | 250 (≈ 110 µg/mL) | 31.3 (≈ 13.8 µg/mL) |  |  |  |  | 
Cc1c(C(=O)N2CCC3(CC2)CC(O)(c2ccc(F)cc2)CO3)oc2ccccc12 (centres unmarked) [Compound 4] | 125 | > 250 | >2 |  |  |  |  |  |  | 
O=C(c1ccc2c(c1)OCO2)N1CCC(Cn2nc(-c3ccc(F)cc3)ccc2=O)CC1 [Compound 5] | 250 |  |  |  |  |  |  |  |  | 
O=C(CN1C(=O)C2C3CCC(C3)C2C1=O)N1CCC2(CC1)Nc1ccccc1-n1cccc12 (centres unmarked) [Compound 6] | 500 |  |  |  |  |  |  |  |  | 
Cc1ccc(CN2C[C@]34C=C[C@H](O3)C(C(=O)N3CCn5cccc5C3)C4C2=O)cc1C (some centres unmarked) [Compound 7] | 2 | > 500 |  | > 500 | 500 (≈ 209 µg/mL) | no inhibition; also recorded: does not inhibit | inhibited | 15.6 to 31.3 |  | 
Cc1cc2oc(C(=O)N3CCC(c4nc5ccccc5[nH]4)CC3)c(C)c2cc1C [Compound 8] | 62.5 | > 500 |  | > 500 | 23.4 (≈ 9.07 µg/mL) |  | inhibited |  | > 500 | 
Cc1ccc2[nH]c(C3CCN(C(=O)c4oc5ccc(C)cc5c4C)CC3)nc2c1 [Compound 9] | 62.5 | > 500 |  | 125 (≈ 48.4 µg/mL) | 23.4 (≈ 9.07 µg/mL) |  | inhibited |  | > 500 | 
Cc1ccc2oc(C(=O)N3CCC(O)(c4cccc(C(F)(F)F)c4)CC3)c(C)c2c1 [Compound 10] | 62.5 | > 500 |  | 125 (≈ 52.2 µg/mL) | 23.4 (≈ 9.77 µg/mL) |  |  |  | > 500 | 
Cc1c(C(=O)N2CCCCC2CCc2ccc(O)cc2)oc2c(F)cccc12 (centres unmarked) [Compound 11] | 62.5 | 250 |  | 500 (≈ 191 µg/mL) | 46.9 (≈ 17.9 µg/mL) |  |  |  | > 500 | 
Cc1ccc2c(C)c(C(=O)N3CCC4(CC(=O)c5ccccc5O4)C3)oc2c1 (centres unmarked) [Compound 12] | 62.5 | > 500 |  | > 500 | 500 (≈ 188 µg/mL) |  |  |  | > 500 | 
CC[C@@]1(O)C(=O)OCc2c1cc1n(c2=O)Cc2cc3ccccc3nc2-1 [camptothecin] |  |  |  |  |  |  |  |  |  | increased nicking of DNA by human topoisomerase I significantly
